According to patent US20260242829A1, “Use of Inhibitors to Increase Efficiency of CRISPR/Cas Insertions” (ASTRAZENECA AB, priority 2023, published 2026):

Tested on: HEK293T cells
Assay: Effect of MMEJ and NHEJ inhibitors on CRISPR-Cas-induced double-strand break repair pathways and editing efficiency (amplicon sequencing, RIMA2)
Type: cell-based
Settings: AZD7648 (1 µM) alone and in combination with Compound 1 at indicated concentrations, CRISPR/Cas9-mediated gene targeting, FIG. 4
Protocol: The effect of inhibitors of the MMEJ and NHEJ pathways on CRISPR-Cas-induced DNA double stranded break repair pathways was examined using the process shown schematically in FIG. 2A. Briefly, HEK293T cells were seeded into a 96-well plate 20 hours before transfection with plasmids encoding SpCas9 and a guide RNA (sgRNA) targeting CD34 in the presence and absence of single-stranded oligonucleotide donor (ssDNA). Two hours prior to transfection, the cells were submitted to inhibitor treatments, including the following conditions: a) 1 μM DNAPK inhibitor AZD7648 b) 1 μM DNAPK inhibitor AZD7648 in combination with compound 1, which was titrated in a 1:2 dilution series, ranging between 10 μM and 0.01 μM and corresponding DMSO control. Seventy hours post-transfection, cell confluence and eGFP-based transfection efficiencies were determined with the Incucyte SX5. Genomic DNA was extracted and editing outcome was analysed through deep-targeted amplicon sequencing and RIMA2 analysis (FIG. 2A) to determine knock-in frequencies as well as mutagenic DNA repair events, such as NHEJ and MMEJ outcomes (FIG. 2B).

Structure (SMILES) | DNA double strand break repair pathway used after CRISPR/Cas gene targeting
Cc1cc2ncnn2cc1Nc1ncc2c(n1)n(C1CCOCC1)c(=O)n2C [AZD7648] | results in DNA double strand break repair by the more precise HDR pathway, and minimizes the contribution from the more error-prone MMEJ and NHEJ pathways
CN1CCN(CCOc2ccc(-c3nc4c(OC5(C)CC5)ncnc4n3Cc3ccccc3)c(Cl)c2)CC1 [Compound 1, 9-Benzyl-8-(2-chloro-4-(2-(4-methylpiperazin-1-yl)ethoxy)phenyl)-6-(1-methylcyclopropoxy)-9H-purine] | results in DNA double strand break repair by the more precise HDR pathway, and minimizes the contribution from the more error-prone MMEJ and NHEJ pathways
